We go through 13 compounds from ChEMBL document CHEMBL1146687, “Novel semi-synthetic nocathiacin antibiotics: synthesis and antibacterial activity of bis- and mono-O-alkylated derivatives” (Bioorg Med Chem Lett, 2004).

In brackets after ≈: the same amount, converted by molar mass.

What all share (type): functional
The test system of one test is Streptococcus pneumoniae. Description: In vitro antibacterial activity against Streptococcus pneumoniae.
Test [1] has as its system Staphylococcus aureus. Description: In vivo efficacy;(sc) tested for protection against staphylococcus infections in mice. Conditions: read-out: PD50.
For test [2], the system named is Staphylococcus aureus. As to the kind of experiment: In vitro antibacterial activity against Staphylococcus aureus.
The subject of another test is Enterococcus faecalis. Description: In vitro antibacterial activity against Enterococcus faecalis.

The term MIC denotes the least concentration at which growth counts as inhibited. On to `C=C(NC(=O)c1csc(-c2nc3c(cc2O)-c2nc(cs2)C(=O)N[C@@H]([C@@H](C)O)C(=O)N/C(=C(\C)OC)c2nc(cs2)C(=O)N[C@@H]2c4nc(cs4)C(=O)N[C@@H](COC(=O)c4c5c6c(cccc6n4OCCCN4CCN(C)CC4)COC(=O)[C@@H](O[C@H]4C[C@](C)(O)[C@H](N(C)C)[C@H](C)O4)[C@H]2OC5)c2nc-3cs2)n1)C(N)=O`, for which the MIC in the test with Streptococcus pneumoniae amounted to 0.03 µg/mL (≈ 0.019 µM); in the test with Staphylococcus aureus [2] it was 1 µg/mL (≈ 0.634 µM); in the test on Enterococcus faecalis, 1 µg/mL (≈ 0.634 µM). In the test with Staphylococcus aureus [1], the ED50 was 8.7 mg/kg.

For `C=C(NC(=O)c1csc(-c2nc3c(cc2OCC(=O)N(C)C)-c2nc(cs2)C(=O)N[C@@H]([C@@H](C)O)C(=O)N/C(=C(\C)OC)c2nc(cs2)C(=O)N[C@@H]2c4nc(cs4)C(=O)N[C@@H](COC(=O)c4c5c6c(cccc6n4OCC(=O)N(C)C)COC(=O)[C@@H](O[C@H]4C[C@](C)(O)[C@H](N(C)C)[C@H](C)O4)[C@H]2OC5)c2nc-3cs2)n1)C(N)=O`, the minimal inhibitory concentration (MIC) against Streptococcus pneumoniae is 0.125 µg/mL (≈ 0.0777 µM); against Staphylococcus aureus [2], 8 µg/mL (≈ 4.98 µM); with Enterococcus faecalis, 4 µg/mL (≈ 2.49 µM). For the same compound, the ED50 with Staphylococcus aureus [1] is over 10 mg/kg.

As for `C=C(NC(=O)c1csc(-c2nc3c(cc2O)-c2nc(cs2)C(=O)N[C@@H]([C@@H](C)O)C(=O)N/C(=C(\C)OC)c2nc(cs2)C(=O)N[C@@H]2c4nc(cs4)C(=O)N[C@@H](COC(=O)c4c5c6c(cccc6n4OCCOCCOCCOCCOCCOCO)COC(=O)[C@@H](O[C@H]4C[C@](C)(O)[C@H](N(C)C)[C@H](C)O4)[C@H]2OC5)c2nc-3cs2)n1)C(N)=O`, the minimum inhibitory concentration (MIC) in the test with Streptococcus pneumoniae is 0.007 µg/mL (≈ 0.00415 µM); in the test on Staphylococcus aureus [2], 0.125 µg/mL (≈ 0.0741 µM); in the test with Enterococcus faecalis it was 0.5 µg/mL (≈ 0.296 µM). Besides, the ED50 in the test on Staphylococcus aureus [1] was over 10 mg/kg.

With `C=C(NC(=O)c1csc(-c2nc3c(cc2O)-c2nc(cs2)C(=O)N[C@@H]([C@@H](C)O)C(=O)N/C(=C(\C)OC)c2nc(cs2)C(=O)N[C@@H]2c4nc(cs4)C(=O)N[C@@H](COC(=O)c4c5c6c(cccc6n4OC)COC(=O)[C@@H](O[C@H]4C[C@](C)(O)[C@H](N(C)C)[C@H](C)O4)[C@H]2OC5)c2nc-3cs2)n1)C(N)=O`, the results for the minimum inhibitory concentration (MIC) in the test with Streptococcus pneumoniae, in the test on Staphylococcus aureus [2] and against Enterococcus faecalis were 0.003 µg/mL (≈ 0.00207 µM), 0.03 µg/mL (≈ 0.0207 µM) and 0.125 µg/mL (≈ 0.0861 µM), respectively. Besides, in the test on Staphylococcus aureus [1], the ED50 is under 0.62 mg/kg.

Consider `C=C(NC(=O)c1csc(-c2nc3c(cc2O)-c2nc(cs2)C(=O)N[C@@H]([C@@H](C)O)C(=O)N/C(=C(\C)OC)c2nc(cs2)C(=O)N[C@@H]2c4nc(cs4)C(=O)N[C@@H](COC(=O)c4c5c6c(cccc6n4OCCCN)COC(=O)[C@@H](O[C@H]4C[C@](C)(O)[C@H](N(C)C)[C@H](C)O4)[C@H]2OC5)c2nc-3cs2)n1)C(N)=O`, for which the minimum inhibitory concentration (MIC) was 0.06 µg/mL (≈ 0.0401 µM) with Streptococcus pneumoniae, 0.25 µg/mL (≈ 0.167 µM) with Staphylococcus aureus [2] and 1 µg/mL (≈ 0.669 µM) with Enterococcus faecalis. The ED50 with Staphylococcus aureus [1] was over 10 mg/kg.

In the case of `C=C(NC(=O)c1csc(-c2nc3c(cc2OCCCS(=O)(=O)O)-c2nc(cs2)C(=O)N[C@@H]([C@@H](C)O)C(=O)N/C(=C(\C)OC)c2nc(cs2)C(=O)N[C@@H]2c4nc(cs4)C(=O)N[C@@H](COC(=O)c4c5c6c(cccc6n4O)COC(=O)[C@@H](O[C@H]4C[C@](C)(O)[C@H](N(C)C)[C@H](C)O4)[C@H]2OC5)c2nc-3cs2)n1)C(N)=O`, the results for the minimum inhibitory concentration (MIC) in the test on Streptococcus pneumoniae, against Staphylococcus aureus [2] and against Enterococcus faecalis were 0.25 µg/mL (≈ 0.16 µM), 2 µg/mL (≈ 1.28 µM) and 32 µg/mL (≈ 20.5 µM), respectively. The ED50 with Staphylococcus aureus [1] was over 10 mg/kg.

Turning to `C=C(NC(=O)c1csc(-c2nc3c(cc2OC)-c2nc(cs2)C(=O)N[C@@H]([C@@H](C)O)C(=O)N/C(=C(\C)OC)c2nc(cs2)C(=O)N[C@@H]2c4nc(cs4)C(=O)N[C@@H](COC(=O)c4c5c6c(cccc6n4O)COC(=O)[C@@H](O[C@H]4C[C@](C)(O)[C@H](N(C)C)[C@H](C)O4)[C@H]2OC5)c2nc-3cs2)n1)C(N)=O`, the values for the minimal inhibitory concentration (MIC) against Streptococcus pneumoniae, in the test on Staphylococcus aureus [2] and against Enterococcus faecalis were 0.003 µg/mL (≈ 0.00207 µM), 0.015 µg/mL (≈ 0.0103 µM) and 0.015 µg/mL (≈ 0.0103 µM), respectively. The ED50 in the test on Staphylococcus aureus [1] was over 10 mg/kg.

As to `C=C(NC(=O)c1csc(-c2nc3c(cc2O)-c2nc(cs2)C(=O)N[C@@H]([C@@H](C)O)C(=O)N/C(=C(\C)OC)c2nc(cs2)C(=O)N[C@@H]2c4nc(cs4)C(=O)N[C@@H](COC(=O)c4c5c6c(cccc6n4OCCCOC4O[C@H](CO)[C@@H](O)[C@H](O)[C@H]4O)COC(=O)[C@@H](O[C@H]4C[C@](C)(O)[C@H](N(C)C)[C@H](C)O4)[C@H]2OC5)c2nc-3cs2)n1)C(N)=O` (some centres not stated), the results for the minimal inhibitory concentration (MIC) against Streptococcus pneumoniae, in the test on Staphylococcus aureus [2] and in the test with Enterococcus faecalis were 0.06 µg/mL (≈ 0.0362 µM), 16 µg/mL (≈ 9.65 µM) and over 128 µg/mL, respectively. Also, in the test with Staphylococcus aureus [1], the ED50 was over 10 mg/kg.

`C=C(NC(=O)c1csc(-c2nc3c(cc2O)-c2nc(cs2)C(=O)N[C@@H]([C@@H](C)O)C(=O)N/C(=C(\C)OC)c2nc(cs2)C(=O)N[C@@H]2c4nc(cs4)C(=O)N[C@@H](COC(=O)c4c5c6c(cccc6n4OCCC[N+](C)(C)C)COC(=O)[C@@H](O[C@H]4C[C@](C)(O)[C@H](N(C)C)[C@H](C)O4)[C@H]2OC5)c2nc-3cs2)n1)C(N)=O`: the MIC was 0.5 µg/mL in the test on Streptococcus pneumoniae, over 128 µg/mL against Staphylococcus aureus [2] and 2 µg/mL in the test with Enterococcus faecalis. Moreover, the ED50 with Staphylococcus aureus [1] was over 10 mg/kg.

As for `C=CCOc1cc2c(nc1-c1nc(C(=O)NC(=C)C(N)=O)cs1)-c1csc(n1)[C@@H]1COC(=O)c3c4c5c(cccc5n3OCC=C)COC(=O)[C@@H](O[C@H]3C[C@](C)(O)[C@H](N(C)C)[C@H](C)O3)[C@@H](OC4)[C@H](NC(=O)c3csc(n3)/C(=C(/C)OC)NC(=O)[C@H]([C@@H](C)O)NC(=O)c3csc-2n3)c2nc(cs2)C(=O)N1`, the minimal inhibitory concentration (MIC) with Streptococcus pneumoniae was determined as 0.0005 µg/mL (≈ 0.000329 µM); in the test on Staphylococcus aureus [2], 0.06 µg/mL (≈ 0.0395 µM); against Enterococcus faecalis, 0.25 µg/mL (≈ 0.165 µM). Moreover, in the test on Staphylococcus aureus [1], the ED50 is over 10 mg/kg.

For `C=C(NC(=O)c1csc(-c2nc3c(cc2O)-c2nc(cs2)C(=O)N[C@@H]([C@@H](C)O)C(=O)N/C(=C(\C)OC)c2nc(cs2)C(=O)N[C@@H]2c4nc(cs4)C(=O)N[C@@H](COC(=O)c4c5c6c(cccc6n4OCCn4ccnc4)COC(=O)[C@@H](O[C@H]4C[C@](C)(O)[C@H](N(C)C)[C@H](C)O4)[C@H]2OC5)c2nc-3cs2)n1)C(N)=O`, the minimum inhibitory concentration (MIC) against Streptococcus pneumoniae was found to be 0.015 µg/mL (≈ 0.00979 µM); in the test with Staphylococcus aureus [2], 0.5 µg/mL (≈ 0.326 µM); against Enterococcus faecalis, 1 µg/mL (≈ 0.653 µM). The ED50 in the test with Staphylococcus aureus [1] is over 10 mg/kg.

On to `C=C(NC(=O)c1csc(-c2nc3c(cc2O)-c2nc(cs2)C(=O)N[C@@H]([C@@H](C)O)C(=O)N/C(=C(\C)OC)c2nc(cs2)C(=O)N[C@@H]2c4nc(cs4)C(=O)N[C@@H](COC(=O)c4c5c6c(cccc6n4OCP(=O)(OCC)OCC)COC(=O)[C@@H](O[C@H]4C[C@](C)(O)[C@H](N(C)C)[C@H](C)O4)[C@H]2OC5)c2nc-3cs2)n1)C(N)=O`, for which the minimal inhibitory concentration (MIC) in the test on Streptococcus pneumoniae worked out at 0.001 µg/mL (≈ 0.00063 µM); in the test on Staphylococcus aureus [2] it was 0.015 µg/mL (≈ 0.00945 µM); against Enterococcus faecalis it was 0.03 µg/mL (≈ 0.0189 µM). Moreover, the ED50 in the test on Staphylococcus aureus [1] amounted to 1.6 mg/kg.

As for `C=C(NC(=O)c1csc(-c2nc3c(cc2OCCN2CCOCC2)-c2nc(cs2)C(=O)N[C@@H]([C@@H](C)O)C(=O)N/C(=C(\C)OC)c2nc(cs2)C(=O)N[C@@H]2c4nc(cs4)C(=O)N[C@@H](COC(=O)c4c5c6c(cccc6n4OCCN4CCOCC4)COC(=O)[C@@H](O[C@H]4C[C@](C)(O)[C@H](N(C)C)[C@H](C)O4)[C@H]2OC5)c2nc-3cs2)n1)C(N)=O`, the minimal inhibitory concentration (MIC) with Streptococcus pneumoniae worked out at 0.03 µg/mL (≈ 0.018 µM); against Staphylococcus aureus [2], 1 µg/mL (≈ 0.601 µM); against Enterococcus faecalis, 0.25 µg/mL (≈ 0.15 µM). The ED50 in the test on Staphylococcus aureus [1] was over 10 mg/kg.
